Laboratory results reported in patent US11517541B2, “Applications of spermidine and its derivatives” (GENEHEAL BIOTECHNOLOGY CO., LTD., priority 2017, dated 2022).

Experiments:
[1] = test system: breast cancer cell strain MD231; assay: Cancer cell growth inhibition / cell viability; format: cell-based; details: after 48 hours of drug administration
[2] = test system: lung cancer cell strain H1299; assay: Cancer cell growth inhibition / cell viability; format: cell-based; details: Homo sapiens, NCI-H1299, after 48 hours of drug administration
PAICS = molecular target: T1, PAICS (Homo sapiens, UniProt P22234); assay: Inhibition of spermidine on PAICS activity (SAICAR accumulation); details: biochemical enzyme activity experiments and cell biology experiments
T1 sequence (P22234 1-425): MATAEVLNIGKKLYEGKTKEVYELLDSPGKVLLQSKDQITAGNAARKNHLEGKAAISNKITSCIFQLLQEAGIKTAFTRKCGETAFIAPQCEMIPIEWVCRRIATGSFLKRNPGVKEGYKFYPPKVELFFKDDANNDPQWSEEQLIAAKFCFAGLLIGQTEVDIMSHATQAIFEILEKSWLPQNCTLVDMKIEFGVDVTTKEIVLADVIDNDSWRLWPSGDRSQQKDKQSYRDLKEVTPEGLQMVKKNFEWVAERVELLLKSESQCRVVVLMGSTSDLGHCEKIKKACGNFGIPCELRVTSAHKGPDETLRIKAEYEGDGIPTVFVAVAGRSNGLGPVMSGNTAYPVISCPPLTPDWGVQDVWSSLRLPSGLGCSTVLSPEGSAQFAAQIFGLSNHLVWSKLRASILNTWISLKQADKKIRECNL
Text: The accumulation of toxic compound SAICAR is reduced by inhibiting the activity of PAICS.

oncogene myc = assay: Inhibition of oncogene MYC expression (Western Blot); format: cell-based; details: FIG. 4
[3] = test system: lung cancer cell strain PC9; assay: Cancer cell growth inhibition / cell viability; format: cell-based; details: after 48 hours of drug administration
[4] = test system: lung cancer cell strain A549; assay: Cancer cell growth inhibition / cell viability; format: cell-based; details: Homo sapiens, after 48 hours of drug administration
[5] = test system: breast cancer cell strain MD468; assay: Cancer cell growth inhibition / cell viability; format: cell-based; details: after 48 hours of drug administration

NCCCCNCCCN [spermidine]
IC50 [1]: 1.41 µM | IC50 [2]: 21.1 µM | inhibition of the accumulation of SAICAR (PAICS): up to 68.98% | expression of oncogene myc (oncogene myc): significantly down-regulated | IC50 [3]: 23.4 µM | IC50 [4]: 52.1 µM | IC50 [5]: 46.1 µM
